Assay: gradient 5% acetonitrile 3 min, to 50% in 2 min, to 85% in 15 min, held 3 min, 100 µL/min
Conditions: column: Zorbax Extend-C18 2.1 x 50 mm; eluents: water / acetonitrile, 0.1% formic acid
In short: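 Retention times of pure standards were taken from adduct peaks that were selected by computer and manually inspected. Over 3 months, mixtures of ~100 molecules were run by HPLC–quadrupole time-of-flight mass spectrometry in positive and negative ionization mode. The Zorbax Extend-C18 column (2.1 × 50 mm, 1.8 μm) ran at 100 μL/min in water and acetonitrile, each containing 0.1% formic acid, with 40 μL dead volume and 900 μL dwell volume.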

| Structure (SMILES) | RP-LC retention time |
| --- | --- |
| CC(=O)Nc1ccc(N(Cc2nnc3n2CCCCC3)C(=O)Nc2cccc(Cl)c2)cc1 | 691 s |
| O=c1ccc(-c2nc(-c3ccncc3)no2)cn1Cc1noc(C2CCCC2)n1 | 719 s |
| CN1C(=O)c2cccn2CC1CNS(=O)(=O)c1cccc2nsnc12 (stereo not given) | 680 s |
| CCc1ccc(N2C(=O)CN(Cc3ccccc3Cl)[C@H]3CS(=O)(=O)C[C@H]32)cc1 | 910 s |
| Cc1nn(Cc2cccc(C(=O)Nc3nc(-c4ccccc4)cs3)c2)c(C)c1Cl | 1160 s |
| O=C(Nc1ccc(OCc2nnc(-c3ccc(Cl)cc3)o2)cc1)c1ccccn1 | 990 s |
| CCCCOC(=O)c1ccc(NC(=O)c2c(OC)cc(=O)n3c2CCCC3)cc1 | 857 s |
| CN(C)C(=O)C1CCN(c2nc3ccc(-c4cccc(F)c4)nc3s2)CC1 | 905 s |
| O=C(NCCC1=CCCCC1)c1ccc(-c2nccnc2N2CCCC2)cc1 | 1030 s |
| COc1cccc(-c2noc(Cn3ccn(-c4ccc(Cl)cc4)c(=O)c3=O)n2)c1 | 876 s |
| Cc1ccc(NC(=O)Cn2c(=O)n(-c3ccccc3)c3ncccc32)cc1C | 906 s |
| Cc1nc(-c2ccc(C(=O)N3CC(=O)Nc4ccccc43)cc2)no1 | 668 s |
| CCOC(=O)c1cnn(-c2cccc(Cl)c2)c1C1CCNCC1 | 650 s |
| CCSc1ccccc1C(=O)N1CCN(c2ccc(-c3ccccn3)nn2)CC1 | 649 s |
| O=c1oc2c(O)c(O)ccc2c2c1CCC2 | 655 s |
| COCCn1cc(CCNC(=O)Nc2cccc(F)c2C)c2cccnc21 | 774 s |
| O=C(CCCN1CCC2(CC1)C(=O)N(Cc1cccc(F)c1)CN2c1ccccc1)c1ccc(F)cc1 | 981 s |
| CCn1c(C(=O)NCCCN2CCCC2=O)c(N2CCCC2=O)c2cc(F)ccc21 | 700 s |
| CCOc1ccc(-c2nc3ncccn3c2NCc2ccc(Cl)cc2)cc1OC | 760 s |
| O=C(NCCC1=CCCCC1)C(=O)Nc1ccc(Cl)cn1 | 1050 s |
| O=C(Nc1ccc2c(c1)OCO2)N1CCN(c2ccc3nnc(C4CC4)n3n2)CC1 | 613 s |
| C[C@@H](c1ncncc1F)[C@@](O)(Cn1cncn1)c1ccc(F)cc1F | 870 s |
| CC(C(=O)N1CCN(c2cc(-c3ccccc3)[nH]n2)CC1)c1ccccc1 (stereo not given) | 824 s |

| Structure (SMILES) | RP-LC retention time |
| --- | --- |
| COc1ccccc1NC(=O)Cn1nc2c(Oc3cccc(Cl)c3)nccn2c1=O | 900 s |
| O=S(=O)(c1cccc(Cl)c1)N1CCN(c2cnn3cnnc3c2)CC1 | 703 s |
| Clc1ccc(-c2nnc(-c3cccnc3NCc3cccs3)o2)cc1 | 1310 s |
| Cc1cccc(C)c1NC(=O)CSC1=Nc2ccccc2N=C(c2ccccc2)C1 | 1100 s |
| COc1ccc(-c2nnc(N3CCC(C(=O)NC(C)c4ccccn4)CC3)o2)cc1 (stereo not given) | 621 s |
| COc1ccc(CN2CCC3(CC2)CC(O)CCO3)cc1C (stereo not given) | 606 s |
| O=C(Nc1ccc2c(c1)OCO2)c1c(O)c2cccnc2n(-c2ccccc2)c1=O | 663 s |
| CC(C)(C)C1CCC2(CC1)CCN(CCCN1CCOCC1)CC2 | 619 s |
| CCc1nc2cc(N3CCCC(C(=O)NC4CCCC4)C3)cnc2nc1CC (stereo not given) | 785 s |
| Cc1ccc2[nH]cc(CCNC(=O)CCC(=O)N3CCSc4c3c(C)nn4-c3ccccc3)c2c1 | 896 s |
| O=c1ccc(-n2cccn2)nn1CCNS(=O)(=O)c1ccc(Cl)s1 | 708 s |
| COc1ccccc1CCC(=O)N1CCc2cc(-c3ccno3)ccc21 | 1040 s |
| Cc1cc2nnc(SCC(=O)Nc3nc(-c4ccccc4)cs3)n2c2ccccc12 | 964 s |
| Cc1ccc(CNc2c(-c3ccc(C(C)C)cc3)nc3ncccn23)cc1 | 907 s |
| O=C(COc1ccccc1F)N1CCN(Cc2csc(-c3ccccc3)n2)CC1 | 606 s |
| CCc1cc2c(N3CCCC(C(=O)NCCCN4CCN(C)CC4)C3)ncnc2s1 (stereo not given) | 585 s |
| O=C1CCN(C(=O)C2CCN(C(=O)NC3CCCCC3)CC2)CCCCCCN1 | 664 s |
| O=C(NC1CC1)c1ccc(OCC2CCN(C(=O)Cc3ccccc3F)CC2)cc1 | 803 s |
| O=c1ccc(-c2ccc3c(c2)OCO3)nn1CCc1nc(-c2cccnc2)no1 | 720 s |
| O=C(NC1CC1)c1n[nH]c2c1CCCC2 | 636 s |
| Cc1nc2cc(N3CC(C(=O)Nc4ccc(C)c(Cl)c4)CC3=O)ccc2o1 (stereo not given) | 819 s |
| CC(C)n1c(N2CCN(C(=O)c3ccc4c(c3)OCO4)CC2)cc(=O)n(C(C)C)c1=O | 823 s |
| O=C1OC(Nc2nc(-c3cccc(Br)c3)cs2)c2ccccc21 (stereo not given) | 862 s |

| Structure (SMILES) | RP-LC retention time |
| --- | --- |
| CCN1CCN(C(=O)C2CCCN(S(=O)(=O)c3ccc4c(ccn4CC)c3)C2)CC1 (stereo not given) | 660 s |
| Cc1noc(C2CN(C(=O)Nc3ccccc3)CC23CCOCC3)n1 (stereo not given) | 650 s |
| Cc1ccc(Cl)cc1N1CCN(C(=O)C2CCN(S(=O)(=O)c3cn(C(C)C)cn3)CC2)CC1 | 964 s |
| CC(C)n1cnc2cc(CNC(=O)Cc3ccccc3F)ccc21 | 623 s |
| CC(C)CCN1CCC(N2CCN(C(=O)CC(C)C)CC2)C1=O (stereo not given) | 579 s |
| CC1(C(=O)N2CCCc3ccccc32)Cc2ccccc2C(=O)O1 (stereo not given) | 841 s |
| COc1cccc(CNC(=O)C2CCCN(c3cnc4nccnc4c3)C2)c1OC (stereo not given) | 675 s |
| Cc1nnc(-c2ccc3ccn(CC(=O)N4CCCCC4)c3c2)o1 | 748 s |
| COc1cccc(C2=NC3(CCN(C(=O)c4ccc5c(c4)OCO5)CC3)NC2=O)c1 | 712 s |
| CC(C)Cn1cc(CCNS(=O)(=O)c2ccc(Br)cc2)c2cccnc21 | 998 s |
| COc1ccccc1N1CCN(C(=O)C2CCCN(c3nccc4sc(C)cc34)C2)CC1 (stereo not given) | 711 s |
| CCOC(=O)c1cccc(N2C=C(C(=O)OC)S(=O)(=O)c3cc(F)ccc32)c1 | 932 s |
| CCCNC(=O)C1CCN(c2ccc(SCC(=O)Nc3cc(Cl)ccc3C)nn2)CC1 | 690 s |
| CNC(=O)C1CCCN(c2nc3ncn(CC(=O)Nc4ccc5c(c4)OCO5)c(=O)c3s2)C1 (stereo not given) | 1110 s |
| Cc1ccc(C)c(S(=O)(=O)Nc2ccc(N3CCN(c4ccccn4)CC3)c(C(=O)O)c2)c1 | 660 s |
| O=S(=O)(c1ccc(Cl)s1)N1CC(c2nc(-c3ncccn3)no2)C1 | 725 s |
| CCCCc1ccc(NC(=O)N2CCC3(C2)c2nc[nH]c2CCN3C)cc1 (stereo not given) | 565 s |
| O=C(c1cccs1)N1CCN(c2ccc3nnc(-c4ccco4)n3n2)CC1 | 631 s |
| O=c1c2oc3ccccc3c2ncn1Cc1nc(-c2cccc(Cl)c2)no1 | 1010 s |
| CC1CCN(c2nc3c(c(=O)n(C)c(=O)n3C)n2Cc2ccccc2F)CC1 | 1090 s |
| COc1ccccc1C(=O)N1C[C@@H]2C[C@H]1C[C@@H]2NS(C)(=O)=O | 632 s |
| CCC(=O)N1CCC(Oc2nccnc2N2CCOCC2)C1 (stereo not given) | 646 s |
| O=S(=O)(Nc1ccc2c(c1)OCCO2)c1ccc(-c2nnc(C3CCC3)o2)o1 | 842 s |

| Structure (SMILES) | RP-LC retention time |
| --- | --- |
| Cc1cc(C2CCCN2C(=O)Nc2ccccc2C(F)(F)F)no1 (stereo not given) | 895 s |
| Cc1ccc(-c2cc3c(=O)n(CC(=O)N4CCCc5ccccc54)ccn3n2)cc1 | 643 s |
| COc1ccc(OC)c(Nc2nc(N(C)C)nc3c2cnn3-c2ccccc2)c1 | 1380 s |
| C[C@@H]1CN(CCCn2c3ccccc3c3ccccc32)C[C@H](C)N1 | 712 s |
| CCCCCNC(=O)C1CC(=O)N(CCc2c[nH]c3ccc(Cl)cc23)C1 (stereo not given) | 740 s |
| O=C(NCCc1cccs1)c1cccc2c1CCN2C(=O)Nc1ccccc1 | 895 s |
| CCCN(C)c1nccnc1OC1CCN(C(=O)C(CC)CC)C1 (stereo not given) | 842 s |
| Cc1[nH]c2ccccc2c1C(=O)C(=O)N1CC2CC(C1)c1cccc(=O)n1C2 (stereo not given) | 612 s |
| OC(CN1CCN(c2ccccn2)CC1)c1ccc2c(c1)OCO2 (stereo not given) | 539 s |
| Cc1cc(NC(=O)C2CCc3nc(N4CCOCC4)ncc3C2)ccc1Cl (stereo not given) | 897 s |
| COCCC1CCN(C(=O)Cc2c(C)noc2C)CC1 | 636 s |
| CCc1nnc(C2CCN(C(=O)c3ccc(F)cc3F)CC2)s1 | 770 s |
| CCOCCCNC(=O)C1CCCN(c2ccc(=O)n(-c3ccc(C)c(Cl)c3)n2)C1 (stereo not given) | 826 s |
| COC(=O)CN1CN(c2ccccc2)C2(CCN(Cc3cccc4ccccc34)CC2)C1=O | 729 s |
| Cc1ccc(CN2C(=O)C3(CCOCC3)CC2c2nnnn2C(C)(C)C)cc1C (stereo not given) | 862 s |
| COc1cccc(CNC(=O)Nc2cc3c(cc2Oc2ccccc2)n(C)c(=O)n3C)c1 | 840 s |
| O=C(Nc1nccs1)c1cc(-c2ccncc2)nc2ccccc12 | 614 s |
| CCNC(=O)c1nc(-c2ccnc(N3CCOCC3)c2)no1 | 644 s |
| Cc1ccc2c(c1)N(S(C)(=O)=O)CC(C)O2 (stereo not given) | 620 s |
| CCc1ccc(NC(=O)Nc2cnn(-c3ncc(N4CCCC4)cn3)c2)cc1 | 880 s |
| CCn1cnc2cc(-c3noc(C(C)NS(=O)(=O)c4ccc(C)cc4)n3)ccc21 (stereo not given) | 683 s |
